In patent US20230374034A1, “NOVEL BICYCLIC COMPOUNDS” (PRISM BIOLAB CO., LTD., priority 2020, published 2023) one finds inhibition data, which are given here for 17 molecules.

The first assay concerns NICD (Notch intracellular domain) CSL-bla reporter in HeLa cells. As to the kind of experiment: Notch assay (CellSensor T-REx NICD CSL-bla HeLa beta-lactamase reporter; Method 1 / Method 2). Conditions: Homo sapiens, 10 μM compound, Method 1 (10× compound prepared in assay medium, added to plated cells), read-out: inhibiton (%) at 10 μM. It is filed as cell-based. In outline: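 HeLa cells carrying doxycycline-inducible NICD and a CSL-driven beta-lactamase reporter, 10^3 cells/well, were treated with compound plus doxycycline for 16-20 h at 37 °C. CCF4-AM substrate was loaded for 4 h at room temperature; background-subtracted blue (460 nm)/green (530 nm) emission ratio taken per well.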
`CC(C)[C@@H]1ON(C(=O)OCc2cccc3ccccc23)C2CN(C(C)C)C(=O)[C@H](Cc3ccc(O)cc3)N2C1=O` (stereo partly drawn) [Compound I-22, (3S,6S)-naphthalen-1-ylmethyl 6-(4-hydroxybenzyl)-3,8-diisopropyl-4,7-dioxohexahydropyrazino[2,1-c][1,2,4]oxadiazine-1(6H)-carboxylate]: the inhibition at 10 µM was found to be 72.8%.
On the same count and under the same terms, in the case of `CCCC[C@@H]1ON(C(=O)OCc2ccccc2)C2CN(CCCC)C(=O)[C@H](Cc3ccc(O)cc3)N2C1=O` (stereo partly drawn) [Compound I-8, (3S,6S)-benzyl 3,8-dibutyl-6-(4-hydroxybenzyl)-4,7-dioxohexahydropyrazino[2,1-c][1,2,4]oxadiazine-1(6H)-carboxylate] it was 60.2%.
On the same count and under the same terms, in the case of `CC(C)[C@H]1ON(C(=O)OCC2CCCCC2)C2CN(Cc3ccccc3)C(=O)[C@H](Cc3ccc(O)cc3)N2C1=O` (stereo partly drawn) [Compound I-7, (3R,6S)-cyclohexylmethyl 8-benzyl-6-(4-hydroxybenzyl)-3-isopropyl-4,7-dioxohexahydropyrazino[2,1-c][1,2,4]oxadiazine-1(6H)-carboxylate] it was 55.5%; in that of `CC(C)CCN1CC2N(C(=O)OCc3cccc4ccccc34)O[C@H](C(C)C)C(=O)N2[C@@H](Cc2ccc(O)cc2)C1=O` (stereo partly drawn) [Compound I-9, (3R,6S)-naphthalen-1-ylmethyl 6-(4-hydroxybenzyl)-8-isopentyl-3-isopropyl-4,7-dioxohexahydropyrazino[2,1-c][1,2,4]oxadiazine-1(6H)-carboxylate], 70%.

Still in this assay, the particulars now being: Homo sapiens, 10 μM compound, Method 2 (40 nL of 1000× compound added to plate with Echo), read-out: inhibiton (%) at 10 μM.
Take `O=C(NCCO)[C@H](Cc1ccccc1)N1CC2N(C(=O)OCCc3ccc(O)cc3)O[C@H](Cc3ccccc3)C(=O)N2[C@@H](Cc2ccccc2)C1=O` (stereo partly drawn) [Compound I-80, 4-hydroxyphenethyl (3R,6S)-3,6-dibenzyl-8-(S)-1-(2-hydroxyethyl)amino)-1-oxo-3-phenylpropan-2-yl)-4,7-dioxohexahydropyrazino[2,1-c][1,2,4]oxadiazine-1(6H)-carboxylate]: the inhibition at 10 µM stood at 63%.
`NC(=O)C[C@H]1C(=O)N(CCc2ccccc2)CC2N(C(=O)OCC3CCCCC3)O[C@H](Cc3ccc(O)cc3)C(=O)N21` (stereo partly drawn) [Compound I-39, (3R,6S)-cyclohexylmethyl 6-(2-amino-2-oxoethyl)-3-(4-hydroxybenzyl)-4,7-dioxo-8-phenethylhexahydropyrazino [2,1-c][1,2,4]oxadiazine-1(6H)-carboxylate]: the inhibition at 10 µM is 52.1%.
The same measure, in the same setting: the value for `CC(C)CCNC(=O)[C@H](Cc1ccc(O)cc1)N1CC2N(C(=O)OCCc3ccc(O)cc3)O[C@H](CC(C)C)C(=O)N2[C@@H](Cc2ccc(O)cc2)C1=O` (stereo partly drawn) [Compound I-95, 4-hydroxyphenethyl (3R,6S)-6-(4-hydroxybenzyl)-8-((S)-3-(4-hydroxyphenyl)-1-(isopentylamino)-1-oxopropan-2-yl)-3-isobutyl-4,7-dioxohexahydropyrazino[2,1-c][1,2,4]oxadiazine-1(6H)-carboxylate] was 60.1%.
Same read-out and setting: in the case of `CC[C@H](C)OC(=O)N1O[C@H](CC2CCCCC2)C(=O)N2C1CN(CCc1ccccc1)C(=O)[C@@H]2CCCCN` (stereo partly drawn) [Compound I-38, (3R,6S)-(S)-sec-butyl 6-(4-aminobutyl)-3-(cyclohexylmethyl)-4,7-dioxo-8-phenethylhexahydropyrazino [2,1-c][1,2,4]oxadiazine-1(6H)-carboxylate] it was 97.3%.
Same read-out and setting: the value for `CC(C)C[C@H]1ON(CCCC2CCN(C(=O)c3ccc(C(=O)c4ccccc4)cc3)CC2)C2CN(C3CCN(C)CC3)C(=O)[C@H](CC(C)C)N2C1=O` (stereo partly drawn) [Compound I-148, (3R,6S)-1-(3-(1-(4-benzoylbenzoyl)piperidin-4-yl)propyl)-3,6-diisobutyl-8-(1-methylpiperidin-4-yl)tetrahydropyrazino[2,1-c][1,2,4]oxadiazine-4,7(3H,6H)-dione] was 76.6%.
Regarding `COC(=O)N1O[C@H](Cc2ccc(O)cc2)C(=O)N2C1CN(CCc1cccc3ccccc13)C(=O)[C@@H]2C` (stereo partly drawn) [Compound I-43, (3R,6S)-methyl 3-(4-hydroxybenzyl)-6-methyl-8-(2-(naphthalen-1-yl)ethyl)-4,7-dioxohexahydropyrazino[2,1-c][1,2,4]oxadiazine-1(6H)-carboxylate], the inhibition at 10 µM was determined as 52.9%.
With `CC(C)C[C@H]1C(=O)N(C2CCN(C)CC2)CC2N(CCCc3ccccc3)O[C@H](CC3CCCCC3)C(=O)N21` (stereo partly drawn) [Compound I-141, (3R,6S)-3-(cyclohexylmethyl)-6-isobutyl-8-(1-methylpiperidin-4-yl)-1-(3-phenylpropyl) tetrahydropyrazino [2,1-c][1,2,4]oxadiazine-4,7(3H,6H)-dione], the inhibition at 10 µM stood at 83.1%.
In the case of `CC(C)C[C@H]1ON(CCCc2ccccc2)C2CN(C3CCNCC3)C(=O)[C@H](CC(C)C)N2C1=O` (stereo partly drawn) [Compound I-147, (3R,6S)-3,6-diisobutyl-1-(3-phenylpropyl)-8-(piperidin-4-yl)tetrahydropyrazino[2,1-c][1,2,4]oxadiazine-4,7(3H,6H)-dione], the inhibition at 10 µM was determined as 50.2%.
The same measure, in the same setting: the value for `CC(C)CCNC(=O)[C@H](Cc1ccc(O)cc1)N1CC2N(C(=O)OCCC(C)C)O[C@H](Cc3ccccc3)C(=O)N2[C@@H](Cc2ccc(O)cc2)C1=O` (stereo partly drawn) [Compound I-107, isopentyl (3R,6S)-3-benzyl-6-(4-hydroxybenzyl)-8-((S)-3-(4-hydroxyphenyl)-1-(isopentylamino)-1-oxopropan-2-yl)-4,7-dioxohexahydropyrazino[2,1-c][1,2,4]oxadiazine-1(6H)-carboxylate] was 61.1%; that for `CC(C)CCOC(=O)N1O[C@H](C)C(=O)N2C1CN([C@@H](Cc1ccccc1)C(=O)NCCC(N)=O)C(=O)[C@@H]2Cc1ccccc1` (stereo partly drawn) [Compound I-84, isopentyl (3R,6S)-8-((S)-1-((3-amino-3-oxopropyl)amino)-1-oxo-3-phenylpropan-2-yl)-6-benzyl-3-methyl-4,7-dioxohexahydro-pyrazino[2,1-c] [1,2,4]oxadiazine-1(6H)-carboxylate] was 78.4%.
Take `CCCC[C@@H](C(=O)NCCCC(C)C)N1CC2N(C(=O)OCCc3ccc(O)cc3)O[C@H](Cc3ccccc3)C(=O)N2[C@@H](C)C1=O` (stereo partly drawn) [Compound I-122, 4-hydroxyphenethyl (3R,6S)-3-benzyl-6-methyl-8-((S)-1-((4-methylpentyl)amino)-1-oxohexan-2-yl)-4,7-dioxohexahydropyrazino [2,1-c][1,2,4]oxadiazine-1(6H)-carboxylate]: the inhibition at 10 µM came out at 79.9%.
Same read-out and setting: the value for `C[C@H]1C(=O)N(Cc2cccc3ccccc23)CC2N(C(=O)OCC3CCCCC3)O[C@H](CCCNC(=N)N)C(=O)N21` (stereo partly drawn) [Compound I-52, (3R,6S)-cyclohexylmethyl 3-(3-guanidinopropyl)-6-methyl-8-(naphthalen-1-ylmethyl)-4,7-dioxohexahydropyrazino[2,1-c][1,2,4]oxadiazine-1(6H)-carboxylate] was 51.4%.
Still for that read-out and setting: in the case of `CC(C)CCNC(=O)[C@H](CC(C)C)N1CC2N(C(=O)OCCc3ccc(O)cc3)O[C@H](Cc3ccccc3)C(=O)N2[C@@H](C)C1=O` (stereo partly drawn) [Compound I-120, 4-hydroxyphenethyl (3R,6S)-3-benzyl-8-((S)-1-(isopentylamino)-4-methyl-1-oxopentan-2-yl)-6-methyl-4,7-dioxohexahydropyrazino [2,1-c][1,2,4]oxadiazine-1(6H)-carboxylate] it was 67.1%.
